Columns and labels:
S. aureus PBP2a = S. aureus PBP2a (Staphylococcus aureus, UniProt P07944); test: BOCILLIN FL fluorescence polarization assay, PBP2A; type: binding; settings: 50 µM compound; read-out: Inhibition of BOCILLIN FL labeling of PBP2A
Method: A dose response study was conducted (Figure 4B) in which PBP4 was preincubated with 0, 3.125, 6.25, 12.5, 25, or 50 µM of ampicillin, kanamycin, or 9314848.
First, fluorescence polarization assays were performed as previously described, but with minor modifications. Briefly, the indicated amount of the putative PBP4 inhibitor or control antibiotic was incubated with 1 µM recombinant B. subtilis PBP4 or S. aureus PBP2a in potassium phosphate buffer (40 mM K2HPO4 and 10 mM KH2PO4) for 1 h in black 96-well microtiter plates (Corning Life Sciences, Corning, NY, USA). Following incubation, 1 µM (final concentration) BOCILLIN FL penicillin was added, and the mixture was incubated for 30 min. BOCILLIN FL fluorescence polarization was measured at (495 nm excitation and 545 nm emission) in a SpectraMax M5 multimode plate reader (Molecular Devices, San Jose, CA, USA). […] Second, gel electrophoresis and fluorescence detection was used to measure BOCILLIN FL labeling of PBP4 treated with the known PBP4 inhibitor cefoxitin (positive control), kanamycin (negative control) or 9314848 (test compound), as previously described but with minor modifications. […] The percentage BOCILLIN FL binding inhibition was then calculated as the normalized band intensity of antibiotic/compound treated sample as compared to the control sample (PBP4 + BOCILLIN FL in the absence of compound).

Enterococcus faecalis = test: Ceftobiprole susceptibility with compound, Enterococcus faecalis; type: cell-based; settings: not shown
Method: (§1) As a means to further evaluate whether the compound affects PBP4 activity a series of assays were performed.

Pseudomonas aeruginosa = test: Ceftobiprole susceptibility with compound, Pseudomonas aeruginosa; type: cell-based; settings: not shown
Method: as §1

recombinant PBP4 = recombinant PBP4 (Bacillus subtilis, UniProt P40750); test: Gel electrophoresis BOCILLIN FL labeling of PBP4; type: binding
Sequence of recombinant PBP4 (P40750 22-624): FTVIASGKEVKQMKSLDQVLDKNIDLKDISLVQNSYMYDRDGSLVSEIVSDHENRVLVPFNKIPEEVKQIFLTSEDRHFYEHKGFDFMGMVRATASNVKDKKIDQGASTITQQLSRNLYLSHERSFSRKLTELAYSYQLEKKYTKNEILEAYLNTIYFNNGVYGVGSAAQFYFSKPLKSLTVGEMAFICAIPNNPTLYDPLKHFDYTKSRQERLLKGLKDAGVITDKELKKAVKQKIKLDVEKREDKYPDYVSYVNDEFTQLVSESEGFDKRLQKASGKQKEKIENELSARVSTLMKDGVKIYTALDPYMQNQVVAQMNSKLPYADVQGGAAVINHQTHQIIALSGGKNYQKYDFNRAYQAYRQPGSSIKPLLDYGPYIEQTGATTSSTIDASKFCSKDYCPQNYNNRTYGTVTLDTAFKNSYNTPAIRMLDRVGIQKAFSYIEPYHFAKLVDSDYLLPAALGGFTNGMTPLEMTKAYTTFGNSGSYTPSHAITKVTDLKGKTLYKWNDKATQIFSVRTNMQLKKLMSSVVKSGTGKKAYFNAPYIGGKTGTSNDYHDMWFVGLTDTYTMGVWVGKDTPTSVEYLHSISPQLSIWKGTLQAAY
Method: A second, yet lower resolution, approach was used to verify the impact of 9314848 on PBP4 substrate binding in which the protein was preincubated with compound or control antibiotics then labeled with the BOCILLIN FL and resulting fluorescent labeled protein was visualized following gel electrophoresis.
The ability of putative PBP4 inhibitors to impact the active site of recombinant PBP4 was assessed using two previously established BOCILLIN-FL Penicillin (Penicillin V conjugated to BODIPY fluorescent dye) binding assays. First, fluorescence polarization assays were performed as previously described, but with minor modifications. Briefly, the indicated amount of the putative PBP4 inhibitor or control antibiotic was incubated with 1 µM recombinant B. subtilis PBP4 or S. aureus PBP2a in potassium phosphate buffer (40 mM K2HPO4 and 10 mM KH2PO4) for 1 h in black 96-well microtiter plates (Corning Life Sciences, Corning, NY, USA). Following incubation, 1 µM (final concentration) BOCILLIN FL penicillin was added, and the mixture was incubated for 30 min. BOCILLIN FL fluorescence polarization was measured at (495 nm excitation and 545 nm emission) in a SpectraMax M5 multimode plate reader (Molecular Devices, San Jose, CA, USA). All assays were repeated at least 8 times, averaged, and values falling outside of 2 standard deviations were considered outliers. The resulting data were plotted as percentage BOCILLIN FL binding inhibition = (T/U) × 100; T = FL polarization of ((PBP4+ BOCILLIN FL) − (PBP4+ BOCILLIN FL + inhibitor compound)), U = FL polarization of ((PBP4 + BOCILLIN FL) − (BOCILLIN FL)). Second, gel electrophoresis and fluorescence detection was used to measure BOCILLIN FL labeling of PBP4 treated with the known PBP4 inhibitor cefoxitin (positive control), kanamycin (negative control) or 9314848 (test compound), as previously described but with minor modifications. Briefly, 1 µM of recombinant PBP4 was mixed with 0, 50, 500, 2000, or 5000 µM 9314848 or control antibiotic in 50 mM phosphate buffer (pH 7.4) and incubated at 37 °C for 30 min. Next 40 μM of BOCILLIN FL was added to the reaction mixture and incubated for an additional 30 min at 37 °C. Reactions were stopped by adding 5× SDS-PAGE gel loading dye, heated at 100 °C for 3 min and separated by electrophoresis in 12% SDS-PAGE (2 h, 120 Volts). BOCILLIN FL labeled PBP4 was imaged at λ = 365 nm using a BioRad Gel Doc EZ Imaging system and the gel was then subsequently stained with Bio-safe Coomassie Brilliant Blue stain (BioRad, Hercules, CA, USA) to measure the amount of protein present in each reaction condition and analyzed using NIH-ImageJ software. The percent BOCILLIN FL binding was calculated by first normalizing the protein present in each reaction condition to that of untreated control and subsequently applying each reaction’s protein normalization factor to each reaction’s fluorescent signal. The percentage BOCILLIN FL binding inhibition was then calculated as the normalized band intensity of antibiotic/compound treated sample as compared to the control sample (PBP4 + BOCILLIN FL in the absence of compound).

Sequence of S. aureus PBP2a (P07944 whole entry): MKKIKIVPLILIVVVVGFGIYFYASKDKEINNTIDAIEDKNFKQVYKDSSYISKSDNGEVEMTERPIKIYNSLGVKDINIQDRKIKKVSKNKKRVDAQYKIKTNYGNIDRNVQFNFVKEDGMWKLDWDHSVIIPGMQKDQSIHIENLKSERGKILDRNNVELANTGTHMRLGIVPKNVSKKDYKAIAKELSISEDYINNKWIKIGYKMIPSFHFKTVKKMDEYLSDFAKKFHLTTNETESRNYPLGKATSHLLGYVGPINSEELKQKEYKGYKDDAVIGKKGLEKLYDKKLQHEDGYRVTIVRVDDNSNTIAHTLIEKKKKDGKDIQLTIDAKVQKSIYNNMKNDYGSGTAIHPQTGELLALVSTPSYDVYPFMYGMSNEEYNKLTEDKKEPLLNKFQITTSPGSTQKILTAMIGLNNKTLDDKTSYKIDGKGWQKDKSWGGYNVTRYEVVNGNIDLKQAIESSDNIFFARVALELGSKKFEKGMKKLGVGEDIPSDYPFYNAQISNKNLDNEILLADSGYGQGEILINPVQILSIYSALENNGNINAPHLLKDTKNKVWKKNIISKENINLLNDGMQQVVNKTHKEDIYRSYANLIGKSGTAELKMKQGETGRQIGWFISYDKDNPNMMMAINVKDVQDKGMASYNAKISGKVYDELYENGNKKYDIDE

**Q.** CC1CCN(C(=O)c2cccc(NC(=O)Nc3ccc(Cl)cc3)c2)CC1 [Compound 9314848] was tested. Which inhibition at 50 µM (S. aureus PBP2a) did it give?
**A.** The inhibition at 50 µM was 25.8 ± 11.4%.

**Q.** And the “Effect on ceftobiprole susceptibility” value (Enterococcus faecalis)?
**A.** The value was “no effect”.

**Q.** And the “Effect on ceftobiprole susceptibility” value (Pseudomonas aeruginosa)?
**A.** The value was “no effect”.

**Q.** And the inhibition at 50 µM (recombinant PBP4; 50 µM compound, read-out: PBP4 BOCILLIN FL binding inhibition (gel-based))?
**A.** The inhibition at 50 µM was 37.5 ± 8.2%.

**Q.** And the inhibition at 5000 µM (recombinant PBP4; 5000 µM compound, read-out: PBP4 BOCILLIN FL binding inhibition (gel-based))?
**A.** Its inhibition at 5000 µM is 72.1 ± 13.1%.

**Q.** What about the “PBP4 BOCILLIN FL binding inhibition (gel-based) at low concentration” value (recombinant PBP4; concentrations below 50 µM) of the same molecule?
**A.** Its value is “did not reproducibly demonstrate BOCILLIN FL binding inhibition”.

Source: publication PMC9598407, “Identification of Staphylococcus aureus Penicillin Binding Protein 4 (PBP4) Inhibitors” (Antibiotics, 2022)
